Like-named read-outs stand apart in the source and are kept apart here.
Assays:
Type in all cases: biochemical
[1] = target: Aspartat-Kinase (AK), C. glutamicum ATCC13032 pCS22 (Corynebacterium glutamicum, UniProt P26512); experiment: Aspartate kinase test, residual activity with effector combinations
Description: (§1) Die Stämme ATCC13032 und DM58-1 wurden unter direkt vergleichbaren Bedingungen in Standard I Bouillon (Merck Art. Nr. 7882) mit zusätzlichen 4 g/l Glucose und 1 mM MgCl₂ bei 30 °C und 150 rpm bis zum Erreichen der früh stationären Phase kultiviert und durch Zentrifugation vom Kulturmedium getrennt. Man wäscht 3 Mal mit 100 mM Tris/HCl (pH 7,5); 1 mM DTT und suspendiert die Feuchtzellmasse in einem Volumenteil des gleiche Puffers.
(§2) Die so suspendierten Zellen wurden in einer Kugelmühle (B. Braun Melsungen - MSK-Homogenisator, IMA-Disintegrator S) durch Verrühren mit einer geeigneten Menge an Glasperlen aufgeschlossen. Das Zellhomogenat wurde mittels Glasfilternutsche von den Glasperlen getrennt und 30 Minuten bei 30000 x g klarzentrifugiert.
(§3) Nach 15stündiger Dialyse in Enzym-stabilisierendem Puffer wurden die Enzymaktivitäten in folgenden Testgemischen bestimmt:
(§4) Aspartat-Kinase Test: 100 mM Tris/HCl (pH 7,5), 1 mM DTT, 400 mM (NH₄)₂SO₄, 20 mM MgCl₂, 400 mM NH₂OH·HCl, 300 mM L-Aspartat, 40 mM ATP und verschiedene Mengen Enzympräparation. Durch Zugabe von 750 µl einer Lösung aus 10 % Fe Cl₃ 6H₂O; 3,3 % TCA; 0,7 N HCl zu 500 µl des Enzymtestgemisches wird die Enzymreaktion nach 30 minütiger Inkubation bei 37 °C gestoppt. Aus der mittels Eichkurvenverfahren photometrisch (ΔE540 nm) bestimmten Aspartyl-beta-Hydroxamat Konzentration wird die in µMol/mg·min (U/mg) angegebenen Enzymaktivität kalkuliert. Die zugehörigen Proteinkonzentrationen wurden nach der Methode von Lowry et al. (Lowry et al. J. Biol. Chem. 193, 265 (1951)) oder Bradford (Bradford Anal. Biochem. 72, 248 (1976)) durchgeführt. Der Aspartyl-β-semialdehyd Dehydrogenase Test enthält 120 mM Diethanolamin (pH 9,0); 40 mM Na AsO₄; 1 mM NADP⁺; 5 mM L-Threonin; 1,3 mM Aspartyl-beta-semialdehyd und verschiedene Mengen Enzympräparation in einem Gesamtvolumen von 1 ml. Die in µMol/mg·min (U/mg) angegebene Aktivitat wird über die photometrisch […] bestimmte NADPH Synthesegeschwindigkeit berechnet.
(§5) Aspartat-Kinase-Aktivität wurde in Stamm ATCC13032/pCS2, als positive Kontrolle in Stamm DM58-1 und als negative Kontrolle in Stamm ATCC13032 gemessen. Die Stämme wurden in Standard I Bouillon, das mit 4 g/l Glucose, 10 µg/ml Kanamycin und 1 mM MgCl₂ supplementiert war, kultiviert. Kulturbedingungen, Zellernte, Zellaufschluß und Bestimmung der Aspartat-Kinase wurden, wie unter 1.2 beschrieben, durchgeführt. Die Effektoren L-Lys, L-Thr und AEC werden jeweils als Stammlösungen in 100 mM Tris/HCl Puffer mit einem pH von 7,5 zugegeben.
(§6) Die Aspartat-Kinase-Aktivität und die Hemmbarkeit der Enzymaktivität durch Mischungen von Lysin bzw. AEC und Threonin wurde in den konstruierten Klonen bestimmt. Anzucht, Aufschluß und Aktivitätsbestimmung wurden, wie oben beschrieben, durchgeführt. Außerdem wurde die Fahigkeit der verschiedenen Klone untersucht, L-Lysin auszuscheiden. Hierfür wurde ein Agarplatten-Diffusionstest mit einem L-Lysin-auxotrophen Indikationsstamm von C. glutamicum verwendet. Aus Tabelle 4 ist zu entnehmen, daß sämtliche AEC resistenten Stämme eine partiell deregulierte Aspartat-Kinase-Aktivität besitzen und in der Lage sind, L-Lysin auszuscheiden. Tabelle 3

[2] = target: Aspartat-Kinase (AK), C. glutamicum ATCC13032 (pCS23) (Corynebacterium glutamicum, UniProt P26512); experiment: as above
Description: as §1, §2, §3, §4, §5, §6

[3] = target: Aspartat-Kinase (AK), C. glutamicum ATCC13032 (pCS21) (Corynebacterium glutamicum, UniProt P26512); experiment: as above
Description: as §1, §2, §3, §4, §5, §6

[4] = target: Aspartat-Kinase (AK), C. glutamicum ATCC13032 (pCS2) (Corynebacterium glutamicum, UniProt P26512); experiment: as above
Description: as §1, §2, §3, §4, §5, §6

[5] = target: Aspartat-Kinase (AK), C. glutamicum DM58-1 (pZ1) (Corynebacterium glutamicum, UniProt P26512); experiment: as above
Description: as §1, §2, §3, §4, §5, §6

[6] = target: Aspartat-Kinase (AK), C. glutamicum ATCC13032 (pCS233) (Corynebacterium glutamicum, UniProt P26512); experiment: as above
Description: as §1, §2, §3, §4, §5, §6

[7] = target: Aspartat-Kinase (AK), C. glutamicum ATCC13032 (pCS24) (Corynebacterium glutamicum, UniProt P26512); experiment: as above
Description: as §1, §2, §3, §4, §5, §6

[8] = target: Aspartat-Kinase (AK), C. glutamicum ATCC13032 (pCS26) (Corynebacterium glutamicum, UniProt P26512); experiment: as above
Description: as §1, §2, §3, §4, §5, §6

[9] = target: Aspartat-Kinase (AK) aus C. glutamicum DM58-1 (AEC resistente Mutante von ATCC13032) (Corynebacterium glutamicum, UniProt P26512); experiment: Aspartate kinase test (hydroxamate), inhibition by effector combinations, dialysed crude extract
Description: as §1, §2, §3, §4
(§7) Tabelle 1 zeigt, das die bereits von K. Nakayama et al. (K. Nakayama et al. Agr. Biol. Chem. 30, 611 (1966)) angedeutete und von S.N. Kara-Murza et al. (S.N. Kara-Murza Prikladnaya Biokhimiya; Mikrobiologia 14, 345 (1978)) genauer untersuchte Hemmbarkeit des C. glutamicum Wildtyp-Enzyms durch uns reproduziert werden konnte. Dem gegen-übergestellt ist der deutlich differente Charakter des Enzyms der AEC resistenten Mutante DM58-1, deren Aspartat-Kinase nicht mehr konzertiert durch L-Lysin + L-Threonin hemmbar ist. Durch die am Enzym aus ATCC13032 Lysin-analog wirkenden Substanzen S-Aminoethyl-D,L-Cystein (AEC) wird das Enzym der Mutanten ebenfalls nur noch gering beeinflußt. Tabelle 1

[10] = target: T1, Aspartat-Kinase (AK) aus C. glutamicum ATCC13032 (Wildtyp-Enzym) (Corynebacterium glutamicum, UniProt P26512); experiment: as above
T1 construct: Rohextrakten identisch gezogener; endogenous in cells; host or cells: C. glutamicum ATCC13032, dialysed crude extract
T1 sequence (P26512 1-421): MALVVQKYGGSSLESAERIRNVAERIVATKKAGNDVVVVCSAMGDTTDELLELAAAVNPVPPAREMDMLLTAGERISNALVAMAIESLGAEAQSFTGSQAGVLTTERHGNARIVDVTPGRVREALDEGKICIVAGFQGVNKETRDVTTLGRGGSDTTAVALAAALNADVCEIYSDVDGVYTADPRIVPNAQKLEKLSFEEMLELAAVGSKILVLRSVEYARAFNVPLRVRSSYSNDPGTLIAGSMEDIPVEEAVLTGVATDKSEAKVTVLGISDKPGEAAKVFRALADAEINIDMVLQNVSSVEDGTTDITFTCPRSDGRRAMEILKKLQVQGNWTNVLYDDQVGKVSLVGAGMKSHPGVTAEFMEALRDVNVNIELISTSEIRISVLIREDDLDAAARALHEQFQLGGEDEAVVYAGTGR
T1 sequence (P26512 1-172 isoform P26512-2): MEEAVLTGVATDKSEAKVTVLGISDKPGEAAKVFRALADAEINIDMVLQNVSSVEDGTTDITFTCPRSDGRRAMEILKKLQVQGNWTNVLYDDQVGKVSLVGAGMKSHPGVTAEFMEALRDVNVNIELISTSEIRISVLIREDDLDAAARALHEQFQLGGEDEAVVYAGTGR
Description: as §1, §2, §3, §4, §7

NCCCC[C@H](N)C(=O)O [L-Lys, L-Lysin]
AK Restaktivität (%) in Anwesenheit von 10mM Lys 1mM Thr ([1]; 10mM Lys + 1mM Thr): 40% | AK Restaktivität (%) in Anwesenheit von 10mM Lys 10mM Thr ([1]; 10mM Lys + 10mM Thr): 41% | AK Restaktivität (%) in Anwesenheit von 100mM Lys 10mM Thr ([1]; 100mM Lys + 10mM Thr): 22% | AK Restaktivität (%) in Anwesenheit von 10mM Lys 1mM Thr ([2]; 10mM Lys + 1mM Thr): 51% | AK Restaktivität (%) in Anwesenheit von 10mM Lys 10mM Thr ([2]; 10mM Lys + 10mM Thr): 57% | AK Restaktivität (%) in Anwesenheit von 100mM Lys 10mM Thr ([2]; 100mM Lys + 10mM Thr): 30% | AK Restaktivität (%) in Anwesenheit von 10mM Lys 1mM Thr ([3]; 10mM Lys + 1mM Thr): 46% | AK Restaktivität (%) in Anwesenheit von 10mM Lys 10mM Thr ([3]; 10mM Lys + 10mM Thr): 50% | AK Restaktivität (%) in Anwesenheit von 100mM Lys 10mM Thr ([3]; 100mM Lys + 10mM Thr): 24% | AK Restaktivität (%) in Anwesenheit von 10mM Lys 1mM Thr ([4]; 10mM Lys + 1mM Thr): 55% | AK Restaktivität (%) in Anwesenheit von 10mM Lys 10mM Thr ([4]; 10mM Lys + 10mM Thr): 55% | AK Restaktivität (%) in Anwesenheit von 100mM Lys 10mM Thr ([4]; 100mM Lys + 10mM Thr): 28% | AK Restaktivität (%) in Anwesenheit von 10mM Lys 1mM Thr ([5]; 10mM Lys + 1mM Thr): 83% | AK Restaktivität (%) in Anwesenheit von 10mM Lys 10mM Thr ([5]; 10mM Lys + 10mM Thr): 100% | AK Restaktivität (%) in Anwesenheit von 100mM Lys 10mM Thr ([5]; 100mM Lys + 10mM Thr): 79% | AK Restaktivität (%) in Anwesenheit von 10mM Lys 1mM Thr ([6]; 10mM Lys + 1mM Thr): 56% | AK Restaktivität (%) in Anwesenheit von 10mM Lys 10mM Thr ([6]; 10mM Lys + 10mM Thr): 62% | AK Restaktivität (%) in Anwesenheit von 100mM Lys 10mM Thr ([6]; 100mM Lys + 10mM Thr): 36% | AK Restaktivität (%) in Anwesenheit von 10mM Lys 1mM Thr ([7]; 10mM Lys + 1mM Thr): 65% | AK Restaktivität (%) in Anwesenheit von 10mM Lys 10mM Thr ([7]; 10mM Lys + 10mM Thr): 65% | AK Restaktivität (%) in Anwesenheit von 100mM Lys 10mM Thr ([7]; 100mM Lys + 10mM Thr): 40% | AK Restaktivität (%) in Anwesenheit von 10mM Lys 1mM Thr ([8]; 10mM Lys + 1mM Thr): 64% | AK Restaktivität (%) in Anwesenheit von 10mM Lys 10mM Thr ([8]; 10mM Lys + 10mM Thr): 63% | AK Restaktivität (%) in Anwesenheit von 100mM Lys 10mM Thr ([8]; 100mM Lys + 10mM Thr): 39% | AK-Hemmung ([9]; 10 mM L-Lys + 1 mM (second inhibitor not named, L-Thr)): 12% | AK-Hemmung ([9]; 10 mM L-Lys + 10 mM L-Thr): 2% | AK-Hemmung ([9]; 100 mM L-Lys + 10 mM L-Thr): 21% | inhibition at 10000 µM ([10]; read-out: AK-Hemmung, 10 mM L-Lys + 1 mM (second inhibitor not named, L-Thr)): 89% | inhibition at 10000 µM ([10]; read-out: AK-Hemmung, 10 mM L-Lys + 10 mM L-Thr): 95% | inhibition at 100000 µM ([10]; read-out: AK-Hemmung, 100 mM L-Lys + 10 mM L-Thr): 99%

NCCSCC(N)C(=O)O (racemic) [AEC, S-(Aminoethyl)-D,L-Cystein]
AK Restaktivität (%) in Anwesenheit von 100mM AEC 10mM Thr ([2]; 100mM AEC + 10mM Thr): 56% | AK Restaktivität (%) in Anwesenheit von 100mM AEC 10mM Thr ([4]; 100mM AEC + 10mM Thr): 56% | AK Restaktivität (%) in Anwesenheit von 100mM AEC 10mM Thr ([5]; 100mM AEC + 10mM Thr): 93% | AK Restaktivität (%) in Anwesenheit von 100mM AEC 10mM Thr ([6]; 100mM AEC + 10mM Thr): 57% | AK Restaktivität (%) in Anwesenheit von 100mM AEC 10mM Thr ([7]; 100mM AEC + 10mM Thr): 62% | AK Restaktivität (%) in Anwesenheit von 100mM AEC 10mM Thr ([8]; 100mM AEC + 10mM Thr): 60% | AK-Hemmung ([9]; 10 mM AEC + 1 mM L-Thr): 0% | AK-Hemmung ([9]; 10 mM AEC + 10 mM L-Thr): 0% | AK-Hemmung ([9]; 100 mM AEC + 10 mM L-Thr): 7% | inhibition at 10000 µM ([10]; 10 mM AEC + 1 mM L-Thr, read-out: AK-Hemmung): 12% | inhibition at 10000 µM ([10]; 10 mM AEC + 10 mM L-Thr, read-out: AK-Hemmung): 41% | inhibition at 100000 µM ([10]; 100 mM AEC + 10 mM L-Thr, read-out: AK-Hemmung): 95%
